Calls of active or inactive are those of the source. The calls are words filed in the database; no cut-off is given here.
Tests used:
[1] = Drug uptake in human HeLa cell nucleus at 10 uM after 1 hr by mitotracker red staining based confocal laser scanning microscopic method; format: ADME, subcellular
[2] = tested on: HeLa; test: Photocytotoxicity against human HeLa cells assessed as reduction in cell viability preincubated for 1 hr followed blue LED light irradiation for 5 mins and measured after 24 hrs by MTT assay; format: functional, cell-based
[3] = tested on: MCF7; test: Photocytotoxicity against human MCF7 cells assessed as reduction in cell viability preincubated for 1 hr followed blue LED light irradiation for 10 mins and measured after 24 hrs by MTT assay; format: functional, cell-based
[4] = Drug uptake in human HeLa cell mitochondria at 10 uM after 1 hr by mitotracker red staining based confocal laser scanning microscopic method; format: ADME
[5] = tested on: HeLa; test: Photocytotoxicity against human HeLa cells assessed as induction of mitochondrial damage by measuring mitochondrial swelling at 10 uM preincubated for 1 hr followed by 488 nanometer laser light irradiation up to 6 mins by mitotracker red staining based confocal laser scanning microscopic method; format: functional, cell-based
[6] = tested on: HeLa; test: Photocytotoxicity against human HeLa cells assessed as cell shrinkage at 10 uM preincubated for 1 hr followed by blue LED light irradiation for 5 mins and measured after 13 hrs by propidium iodide staining based fluorescence microscopic method; format: functional
[7] = tested on: NIH3T3; test: Cytotoxicity against mouse NIH/3T3 cells assessed as cytoplasmic shrinkage at 10 uM preincubated for 1 hr followed by 488 nanometer laser light irradiation and measured after 16 mins by confocal microscopic method; format: cell-based; conditions: nih3t3, 16 min
[8] = tested on: HeLa; test: Photocytotoxicity against human HeLa cells assessed as induction of mitochondrial membrane potential depolarization at 10 uM preincubated for 1 hr followed by blue LED light irradiation for 5 mins by TMRE staining based confocal microscopic method; format: functional, cell-based
[9] = tested on: DNA; test: Binding affinity to Escherichia coli pBR322 DNA assessed as increase in test compound fluorescence after 30 mins under blue LED light irradiation; format: nucleic-acid assay
[10] = tested on: HeLa; test: Photocytotoxicity against human HeLa cells assessed as increase in cleaved caspase-3 protein expression preincubated for 1 hr followed by blue LED light irradiation for 10 mins and measured after 18 hrs by Western blot analysis; format: functional, cell-based
[11] = tested on: HeLa; test: Photocytotoxicity against human HeLa cells assessed as cell shrinkage at 5 uM preincubated for 1 hr followed by blue LED light irradiation for 10 to 30 mins and measured after 2.5 hrs by holotomographic method; format: functional, cell-based
[12] = Dark toxicity in human A549 cells assessed as reduction in cell viability up to 10 uM measured after 24 hrs by MTT assay; format: cell-based; conditions: a549, 24 h
[13] = tested on: A549; test: Photocytotoxicity against human A549 cells assessed as reduction in cell viability preincubated for 1 hr followed blue LED light irradiation for 5 mins and measured after 24 hrs by MTT assay; format: functional, cell-based
[14] = Drug uptake in human MCF7 cell mitochondria at 10 uM incubated for 1 to 2 hrs under 488 nanometer laser light irradiation by confocal microscopic method; format: ADME; conditions: mcf7, 10 µM
[15] = tested on: Calf thymus DNA; test: Binding affinity to calf thymus DNA assessed as red shift in emission maxima; format: nucleic-acid assay; conditions: Bos taurus
[16] = tested on: HeLa; test: Photocytotoxicity against human HeLa cells assessed as chromatin condensation up to 10 uM preincubated for 1 hr followed by blue LED light irradiation for 5 mins and measured after 13 hrs by Hoechst 33258 staining based fluorescence microscopic method; format: functional, cell-based
[17] = tested on: DNA; test: Binding affinity to Escherichia coli pBR322 DNA assessed as increase in test compound fluorescence up to 10 uM after 30 mins under blue LED light irradiation relative to control; format: nucleic-acid assay
[18] = tested on: HeLa; test: Photocytotoxicity against human HeLa cells assessed as increase in cleaved caspase-9 protein expression preincubated for 1 hr followed by blue LED light irradiation for 10 mins and measured after 18 hrs by Western blot analysis; format: functional, cell-based
[19] = tested on: HeLa; test: Photocytotoxicity against human HeLa cells assessed as membrane protrusion at 5 uM preincubated for 1 hr followed by blue LED light irradiation for 10 to 30 mins and measured after 2.5 hrs by holotomographic method; format: functional, cell-based
[20] = tested on: HeLa; test: Photocytotoxicity against human HeLa cells assessed as cell rounding at 20 uM preincubated for 1 hr followed by blue LED light irradiation for 10 mins and measured after 2.5 hrs by holotomographic method; format: functional, cell-based
[21] = Drug uptake in mouse NIH/3T3 cell mitochondria at 10 uM incubated for 1 to 2 hrs under 488 nanometer laser light irradiation by confocal microscopic method; format: ADME; conditions: nih3t3, 10 µM
[22] = tested on: HeLa; test: Photocytotoxicity against human HeLa cells assessed as cytoplasmic shrinkage at 10 uM preincubated for 1 hr followed by 488 nanometer laser light irradiation and measured after 8 to 10 mins by confocal microscopic method; format: functional, cell-based
[23] = Dark toxicity in human HeLa cells assessed as morphological changes at 10 uM measured after 14 hrs by propidium iodide staining based fluorescence microscopic method; format: cell-based
[24] = tested on: HeLa; test: Photocytotoxicity against human HeLa cells assessed as cellular shrinkage up to 10 uM preincubated for 1 hr followed by blue LED light irradiation for 5 mins and measured after 13 hrs by Hoechst 33258 staining based fluorescence microscopic method; format: functional, cell-based
[25] = Drug uptake in human HeLa cell mitochondria at 10 uM incubated for 1 to 2 hrs under 488 nanometer laser light irradiation by confocal microscopic method; format: ADME
[26] = tested on: DNA; test: Induction of Escherichia coli pBR322 DNA cleavage irradiated with blue LED light after 30 mins by agarose gel electrophoresis method; format: nucleic-acid assay
[27] = tested on: HeLa; test: Photocytotoxicity against human HeLa cells assessed as plasma membrane blebbing at 20 uM preincubated for 1 hr followed by blue LED light irradiation for 10 mins and measured after 2.5 hrs by holotomographic method; format: functional, cell-based
[28] = Induction of singlet oxygen production assessed as photodegradation of DPBF by measuring quantum yield after irradiation with 356 nanometer light by UV-Visible spectroscopic analysis; format: functional
[29] = tested on: HeLa; test: Photocytotoxicity against human HeLa cells assessed as DNA fragmentation up to 10 uM preincubated for 1 hr followed by blue LED light irradiation for 5 mins and measured after 13 hrs by Hoechst 33258 staining based fluorescence microscopic method; format: functional, cell-based
[30] = tested on: HeLa; test: Photocytotoxicity against human HeLa cells assessed as plasma membrane blebbing at 0.5 uM preincubated for 1 hr followed by blue LED light irradiation for 5 mins and measured after 13 hrs by propidium iodide staining based fluorescence microscopic method; format: functional, cell-based
[31] = tested on: HeLa; test: Photocytotoxicity against human HeLa cells assessed as reduction in cell viability preincubated for 1 hr followed blue LED light irradiation for 10 mins and measured after 24 hrs by MTT assay; format: functional, cell-based
[32] = tested on: HeLa; test: Photocytotoxicity against human HeLa cells assessed as membrane protrusion at 20 uM preincubated for 1 hr followed by blue LED light irradiation for 10 mins and measured after 2.5 hrs by holotomographic method; format: functional, cell-based
[33] = Drug uptake in human HeLa cell cytoplasm at 10 uM after 1 hr by mitotracker red staining based confocal laser scanning microscopic method; format: ADME, subcellular
[34] = tested on: HeLa; test: Induction of ROS generation in human HeLa cells preincubated for 1 hr followed by blue LED light irradiation for 15 mins by DHE staining based HCS analysis; format: functional, cell-based
[35] = tested on: DNA; test: Induction of Escherichia coli pBR322 DNA cleavage at 20 uM after 30 mins under dark condition by agarose gel electrophoresis method; format: nucleic-acid assay; conditions: 0.5 h

Question: Which Drug uptake [1] does the source give for `Cc1cccn2c1cc1c3ccccc3nc(-c3ccco3)c12` here?
Answer: Not Active

Question: What about the Activity [2] of the same compound?
Answer: Dose-dependent effect

Question: What about the IC50 ([2]; light or radiation study) of the same compound?
Answer: 1760 nM

Question: And the Activity [3]?
Answer: Dose-dependent effect

Question: And the IC50 ([3]; MCF7, light or radiation study)?
Answer: 1670 nM

Question: What about the Drug uptake [4] of the same compound?
Answer: Active

Question: And the Activity [5]?
Answer: Active

Question: And the Activity [6]?
Answer: Active

Question: What about the Activity [7] of the same compound?
Answer: Non-Toxic

Question: And the Activity [8]?
Answer: Active

Question: And the Activity [9]?
Answer: Dose-dependent effect

Question: And the Activity [10]?
Answer: Dose-dependent effect

Question: What about the Activity [11] of the same compound?
Answer: Active

Question: And the Activity [12]?
Answer: Non-Toxic

Question: What about the Activity [13] of the same compound?
Answer: Dose-dependent effect

Question: What about the IC50 ([13]; A549, light or radiation study) of the same compound?
Answer: 2960 nM

Question: What about the Drug uptake [14] of the same compound?
Answer: Active

Question: What about the Activity [15] of the same compound?
Answer: 36 nm

Question: And the Activity [16]?
Answer: Active

Question: And the fold change (FC) [17]?
Answer: < 4

Question: What about the Activity [18] of the same compound?
Answer: Dose-dependent effect

Question: What about the Activity [19] of the same compound?
Answer: Active

Question: And the Activity [20]?
Answer: Active

Question: And the Drug uptake [21]?
Answer: Active

Question: What about the Activity [22] of the same compound?
Answer: Active

Question: And the Activity [23]?
Answer: Non-Toxic

Question: And the Activity [24]?
Answer: Active

Question: What about the Drug uptake [25] of the same compound?
Answer: Active

Question: What about the Activity [26] of the same compound?
Answer: Dose-dependent effect

Question: And the Activity [27]?
Answer: Active

Question: And the Activity [28]?
Answer: 0.33

Question: What about the Activity [29] of the same compound?
Answer: Active

Question: And the Activity [30]?
Answer: Active

Question: And the Activity [31]?
Answer: Dose-dependent effect

Question: What about the IC50 ([31]; light or radiation study) of the same compound?
Answer: 1120 nM

Question: And the Activity [32]?
Answer: Active

Question: What about the Drug uptake [33] of the same compound?
Answer: Active

Question: And the Activity [34]?
Answer: Dose-dependent effect

Question: What about the Activity [35] of the same compound?
Answer: Non-Toxic

Reference: ChEMBL document CHEMBL4145551, “Mitochondria-targeting indolizino[3,2-c]quinolines as novel class of photosensitizers for photodynamic anticancer activity” (Eur J Med Chem, 2018)
